Assays:
human RXFP4 [1] = biological target: T1, human RXFP4 (Homo sapiens, UniProt Q8TDU9); assay: Receptor activation assay, CRE-controlled NanoLuc reporter; assay type: cell-based; conditions: relative to R3/I5
T1 construct: expressed in transfected cells; host or cells: HEK293T
Excerpt: (§1) HEK293T cells transiently cotransfected with a CRE-controlled NanoLuc reporter vector and the expression construct of human RXFP3 or human RXFP4 were used for activation assays. The measured bioluminescence data are expressed as means ± SE (n = 3) and fitted to sigmoidal or linear curves using SigmaPlot 10.0.
(§2) Briefly, HEK293T cells were transiently cotransfected with the NanoLuc reporter vector pNL1.2/CRE and the expression construct of human RXFP3 or human RXFP4. On the next day, transfected cells were trypsinised, seeded into 96-well plates, and continuously cultured for 24–36 h to ~90% confluence. To initiate activation assays, medium was removed and activation solution (serum-free DMEM medium plus 1% bovine serum albumin) containing 1.0 μM of forskolin and various concentrations of peptide was added (100 μl/well). After continuous culturing at 37 °C for 4 h, activation solution was removed and cells were lysed with lysis solution (100 μl/well, Promega). Cell lysates were then transferred to a white opaque 96-well plate (50 μl/well), mixed with freshly diluted substrate (50 μl/well), and bioluminescence was immediately measured on a SpectraMax M5 plate reader (Molecular Devices) in luminescence mode. The measured data were expressed as means ± SE (n = 3) and fitted to sigmoidal or linear curves using SigmaPlot 10.0 software.

human RXFP3 [2] = biological target: T2, human RXFP3 (Homo sapiens, UniProt Q9NSD7); assay: as above; assay type: cell-based; conditions: CRE-NanoLuc reporter, human RXFP3; for activation potency towards RXFP3, in words: compared with R3/I5
T2 construct: expressed in transfected cells; host or cells: HEK293T
T2 sequence (Q9NSD7 1-469): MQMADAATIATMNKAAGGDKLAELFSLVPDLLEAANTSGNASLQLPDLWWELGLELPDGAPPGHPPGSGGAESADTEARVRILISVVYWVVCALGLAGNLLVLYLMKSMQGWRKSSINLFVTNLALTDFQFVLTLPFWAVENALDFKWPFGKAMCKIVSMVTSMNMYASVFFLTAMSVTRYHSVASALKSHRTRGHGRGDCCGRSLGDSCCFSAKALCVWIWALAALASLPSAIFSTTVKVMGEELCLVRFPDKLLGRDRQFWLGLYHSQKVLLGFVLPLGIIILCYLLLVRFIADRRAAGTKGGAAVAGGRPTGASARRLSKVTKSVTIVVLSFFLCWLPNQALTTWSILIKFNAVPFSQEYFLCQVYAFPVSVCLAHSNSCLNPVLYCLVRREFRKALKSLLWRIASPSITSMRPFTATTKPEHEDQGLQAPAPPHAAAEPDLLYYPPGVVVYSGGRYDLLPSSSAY
Excerpt: as §1, §2

human RXFP4 [3] = biological target: T1, human RXFP4; assay: Receptor binding assay, NanoLuc-conjugated R3/I5 tracer competition; conditions: for binding potency towards RXFP4, in words: compared with R3/I5
Experimental: (§3) Specific binding data are expressed as means ± SE (n = 3) and fitted to sigmoidal curves using SigmaPlot 10.0 software.
(§4) Briefly, HEK293T cells were transiently transfected with an expression construct of human RXFP3 or human RXFP4. On the next day, transfected cells were trypsinised, seeded into 96-well plates, and continuously cultured for 24–36 h to ~100% confluence. […] After incubation at 21 °C for 2 h, binding solution was removed and cells were washed twice with ice-cold phosphate-buffered saline (200 μl/well for each wash). Thereafter, cells were lysed by lysis solution (100 μl/well, Promega, Madison, WI, USA) and cell lysates were transferred to a white opaque 96-well plate (50 μl/well). After mixing with freshly diluted substrate (50 μl/well), bioluminescence was immediately measured on a SpectraMax M5 plate reader (Molecular Devices, Sunnyvale, CA, USA) in luminescence mode. […] The calculated specific binding data were expressed as means ± standard error (SE; n = 3) and fitted to sigmoidal curves using SigmaPlot 10.0 software.

human RXFP3 [4] = biological target: T2, human RXFP3; assay: as above; conditions: for binding potency towards RXFP3, in words: compared with R3/I5
Experimental: as §3, §4

T1 sequence (Q8TDU9 whole entry): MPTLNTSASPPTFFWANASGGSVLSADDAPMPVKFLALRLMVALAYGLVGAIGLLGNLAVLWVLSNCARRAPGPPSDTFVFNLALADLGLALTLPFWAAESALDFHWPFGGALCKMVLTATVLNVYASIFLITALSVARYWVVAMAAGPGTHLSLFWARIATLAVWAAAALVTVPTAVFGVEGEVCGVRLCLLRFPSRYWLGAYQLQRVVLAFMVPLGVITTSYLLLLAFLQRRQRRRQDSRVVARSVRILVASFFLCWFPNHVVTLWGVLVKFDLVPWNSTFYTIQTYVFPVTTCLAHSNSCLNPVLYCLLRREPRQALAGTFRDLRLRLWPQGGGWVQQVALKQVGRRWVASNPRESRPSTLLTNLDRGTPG

Compound	fold lower activation potency towards RXFP4 compared with R3/I5 (human RXFP4 [1])	activation potency towards RXFP3, in words (human RXFP3 [2])	binding potency towards RXFP4, in words (human RXFP4 [3])	binding potency towards RXFP3, in words (human RXFP3 [4])	fold lower activation potency towards RXFP3 compared with R3/I5 (human RXFP3 [2]; relative to R3/I5)	fold lower binding potency towards RXFP4 compared with R3/I5 (human RXFP4 [3]; relative to R3/I5)	fold lower binding potency for RXFP3 compared with R3/I5 (human RXFP3 [4]; relative to R3/I5)
CC[C@H](C)[C@@H]1NC(=O)[C@H](Cc2ccccc2)NC(=O)[C@H](CCC(=O)O)NC(=O)[C@H](CCCNC(=N)N)NC(=O)CNC(=O)[C@@H](NC(=O)[C@H](CC(C)C)NC(=O)[C@H](CCCNC(=N)N)NC(=O)[C@@H](NC(=O)CNC(=O)[C@H](Cc2ccc(O)cc2)NC(=O)[C@@H]2CCCN2C(=O)[C@H](C)NC(=O)[C@H](C)NC(=O)[C@H](CCCNC(=N)N)NC(=O)[C@@H]2CCC(=O)N2)C(C)C)CSSC[C@@H]2NC(=O)[C@@H](NC(=O)[C@H](CC(C)C)NC(=O)[C@@H](NC(=O)[C@H](CCC(N)=O)NC(=O)[C@H](CC(C)C)NC(=O)[C@H](CC(=O)O)NC(=O)[C@H](CCC(N)=O)NC(=O)[C@H](CCCNC(=N)N)NC(=O)[C@H](CO)NC(=O)[C@H](CCCNC(=N)N)NC(=O)[C@H](CCCNC(=N)N)NC(=O)[C@H](CO)NC(=O)[C@@H](N)CCCNC(=N)N)[C@@H](C)O)CSSC[C@H](NC(=O)CNC(=O)[C@H](CC(=O)O)NC(=O)[C@H]([C@@H](C)O)NC2=O)C(=O)N[C@@H](CO)C(=O)N[C@@H](CCSC)C(=O)N[C@@H]([C@@H](C)O)C(=O)N[C@@H](CC(=O)O)C(=O)N[C@@H](CC(C)C)C(=O)N[C@@H](CO)C(=O)N[C@@H](C)C(=O)N[C@@H](CC(C)C)C(=O)N[C@H](C(=O)O)CSSC[C@@H](C(=O)N[C@@H](CO)C(=O)NCC(=O)N[C@@H](CO)C(=O)N[C@@H](CCCNC(=N)N)C(=O)N[C@@H](Cc2c[nH]c3ccccc23)C(=O)O)NC(=O)[C@H]([C@@H](C)O)NC(=O)[C@H](Cc2ccccc2)NC(=O)[C@H]([C@@H](C)CC)NC(=O)[C@H](C(C)C)NC(=O)[C@H](C)NC(=O)[C@H](CCCNC(=N)N)NC1=O [[G(B23)S]R3/I5]	~ 100 fold	lost all activation potency	retained high binding potency	retained considerable binding potency	–	–	–
CC[C@H](C)[C@@H]1NC(=O)[C@H](Cc2ccccc2)NC(=O)[C@H](CCC(=O)O)NC(=O)[C@H](CCCNC(=N)N)NC(=O)CNC(=O)[C@@H](NC(=O)[C@H](CC(C)C)NC(=O)[C@H](CCCNC(=N)N)NC(=O)[C@@H](NC(=O)CNC(=O)[C@H](Cc2ccc(O)cc2)NC(=O)[C@@H]2CCCN2C(=O)[C@H](C)NC(=O)[C@H](C)NC(=O)[C@H](CCCNC(=N)N)NC(=O)[C@@H]2CCC(=O)N2)C(C)C)CSSC[C@@H]2NC(=O)[C@@H](NC(=O)[C@H](CC(C)C)NC(=O)[C@@H](NC(=O)[C@H](CCC(N)=O)NC(=O)[C@H](CC(C)C)NC(=O)[C@H](CC(=O)O)NC(=O)[C@H](CCC(N)=O)NC(=O)[C@H](CCCNC(=N)N)NC(=O)[C@H](CO)NC(=O)[C@H](CCCNC(=N)N)NC(=O)[C@H](CCCNC(=N)N)NC(=O)[C@H](CO)NC(=O)[C@@H](N)CCCNC(=N)N)[C@@H](C)O)CSSC[C@H](NC(=O)CNC(=O)[C@H](CC(=O)O)NC(=O)[C@H]([C@@H](C)O)NC2=O)C(=O)N[C@@H](CO)C(=O)N[C@@H](CCSC)C(=O)N[C@@H]([C@@H](C)O)C(=O)N[C@@H](CC(=O)O)C(=O)N[C@@H](CC(C)C)C(=O)N[C@@H](CO)C(=O)N[C@@H](C)C(=O)N[C@@H](CC(C)C)C(=O)N[C@H](C(=O)O)CSSC[C@@H](C(=O)NCC(=O)NCC(=O)NCC(=O)N[C@@H](CO)C(=O)N[C@@H](CCCNC(=N)N)C(=O)N[C@@H](Cc2c[nH]c3ccccc23)C(=O)O)NC(=O)[C@H]([C@@H](C)O)NC(=O)[C@H](Cc2ccccc2)NC(=O)[C@H]([C@@H](C)CC)NC(=O)[C@H](C(C)C)NC(=O)[C@H](C)NC(=O)[C@H](CCCNC(=N)N)NC1=O [[+G(B23-24)]R3/I5]	~ 100 fold	–	comparable with R3/I5	comparable with R3/I5	~ 100 fold	–	–
CC[C@H](C)[C@@H]1NC(=O)[C@H](Cc2ccccc2)NC(=O)[C@H](CCC(=O)O)NC(=O)[C@H](CCCNC(=N)N)NC(=O)CNC(=O)[C@@H](NC(=O)[C@H](CC(C)C)NC(=O)[C@H](CCCNC(=N)N)NC(=O)[C@@H](NC(=O)CNC(=O)[C@H](Cc2ccc(O)cc2)NC(=O)[C@@H]2CCCN2C(=O)[C@H](C)NC(=O)[C@H](C)NC(=O)[C@H](CCCNC(=N)N)NC(=O)[C@@H]2CCC(=O)N2)C(C)C)CSSC[C@@H]2NC(=O)[C@@H](NC(=O)[C@H](CC(C)C)NC(=O)[C@@H](NC(=O)[C@H](CCC(N)=O)NC(=O)[C@H](CC(C)C)NC(=O)[C@H](CC(=O)O)NC(=O)[C@H](CCC(N)=O)NC(=O)[C@H](CCCNC(=N)N)NC(=O)[C@H](CO)NC(=O)[C@H](CCCNC(=N)N)NC(=O)[C@H](CCCNC(=N)N)NC(=O)[C@H](CO)NC(=O)[C@@H](N)CCCNC(=N)N)[C@@H](C)O)CSSC[C@H](NC(=O)CNC(=O)[C@H](CC(=O)O)NC(=O)[C@H]([C@@H](C)O)NC2=O)C(=O)N[C@@H](CO)C(=O)N[C@@H](CCSC)C(=O)N[C@@H]([C@@H](C)O)C(=O)N[C@@H](CC(=O)O)C(=O)N[C@@H](CC(C)C)C(=O)N[C@@H](CO)C(=O)N[C@@H](C)C(=O)N[C@@H](CC(C)C)C(=O)N[C@H](C(=O)O)CSSC[C@@H](C(=O)N[C@@H](CO)C(=O)N[C@@H](CCCNC(=N)N)C(=O)N[C@@H](Cc2c[nH]c3ccccc23)C(=O)O)NC(=O)[C@H]([C@@H](C)O)NC(=O)[C@H](Cc2ccccc2)NC(=O)[C@H]([C@@H](C)CC)NC(=O)[C@H](C(C)C)NC(=O)[C@H](C)NC(=O)[C@H](CCCNC(=N)N)NC1=O [[∆B23-24]R3/I5]	~ 1000 fold	lost all activation potency	–	–	–	~ 10 fold	~ 3 fold
